Source: the NIST ThermoML archive (doi:10.1016/j.jct.2014.08.023)
Numbers after ± are expanded uncertainties.

Conditions: Liquid, Vibrating tube method

CC(C)OC(C)C [diisopropyl ether]
mass density [kg/m3]
Conditions | 293.15 K | 298.15 K | 313.15 K | 333.15 K | 353.19 K | 373.24 K | 393.29 K
100 kPa | 723.5 ± 0.7 | 718.3 ± 0.7 | 702.4 ± 0.7 | 680.4 ± 0.7 | – | – | –
1000 kPa | 724.3 ± 0.7 | 719.5 ± 0.7 | 703.7 ± 0.7 | 682 ± 0.7 | 659.5 ± 0.7 | 635.5 ± 0.7 | 609.5 ± 0.7
5000 kPa | 729.1 ± 0.7 | 724.5 ± 0.7 | 709.3 ± 0.7 | 688.8 ± 0.7 | 667.5 ± 0.7 | 645.5 ± 0.7 | 622.1 ± 0.8
10000 kPa | 734.5 ± 0.7 | 730.2 ± 0.7 | 715.7 ± 0.7 | 696.3 ± 0.8 | 676.4 ± 0.8 | 656.1 ± 0.8 | 634.9 ± 0.8
15000 kPa | 739.6 ± 0.8 | 735.6 ± 0.8 | 721.6 ± 0.8 | 703.1 ± 0.8 | 684.4 ± 0.8 | 665.3 ± 0.8 | 645.7 ± 0.8
20000 kPa | 744.5 ± 0.8 | 740.5 ± 0.8 | 727.1 ± 0.8 | 709.3 ± 0.8 | 691.5 ± 0.8 | 673.4 ± 0.8 | 655.1 ± 0.8
25000 kPa | 749 ± 0.8 | 745.2 ± 0.8 | 732 ± 0.8 | 715 ± 0.8 | 698 ± 0.8 | 680.8 ± 0.8 | 663.4 ± 0.8
30000 kPa | 753.3 ± 0.8 | 749.6 ± 0.8 | 737.1 ± 0.8 | 720.4 ± 0.8 | 704 ± 0.8 | 687.6 ± 0.9 | 671 ± 0.9
35000 kPa | 757.4 ± 0.8 | 753.7 ± 0.8 | 741.5 ± 0.8 | 725.5 ± 0.9 | 709.6 ± 0.9 | 693.8 ± 0.9 | 677.9 ± 0.9
40000 kPa | 761.3 ± 0.8 | 757.7 ± 0.9 | 745.8 ± 0.9 | 730.2 ± 0.9 | 714.8 ± 0.9 | 699.6 ± 0.9 | 684.3 ± 0.9
45000 kPa | 765 ± 0.9 | 761.6 ± 0.9 | 749.9 ± 0.9 | 734.7 ± 0.9 | 719.7 ± 0.9 | 705 ± 0.9 | 690.2 ± 1
50000 kPa | 768.6 ± 0.9 | 765.2 ± 0.9 | 753.8 ± 0.9 | 739 ± 0.9 | 724.5 ± 0.9 | 710.1 ± 1 | 695.7 ± 1
55000 kPa | 772.1 ± 0.9 | 768.7 ± 0.9 | 757.6 ± 0.9 | 743.1 ± 1 | 728.9 ± 1 | 714.9 ± 1 | 701 ± 1
60000 kPa | 775.4 ± 0.9 | 772.1 ± 0.9 | 761.3 ± 1 | 747 ± 1 | 733.1 ± 1 | 719.5 ± 1 | 705.9 ± 1.1
65000 kPa | 778.6 ± 1 | 775.4 ± 1 | 764.8 ± 1 | 750.8 ± 1 | 737.2 ± 1 | 723.9 ± 1.1 | 710.6 ± 1.1
70000 kPa | 781.7 ± 1 | 778.5 ± 1 | 768.1 ± 1 | 754.3 ± 1 | 741.1 ± 1.1 | 728.1 ± 1.1 | 715.1 ± 1.1
80000 kPa | 787.6 ± 1 | 784.5 ± 1 | 774.3 ± 1 | 761.2 ± 1.1 | 748.4 ± 1.1 | 735.9 ± 1.1 | 723.5 ± 1.2
90000 kPa | 793.2 ± 1.1 | 790.3 ± 1.1 | 780.4 ± 1.1 | 767.7 ± 1.1 | 755.3 ± 1.2 | 743.2 ± 1.2 | 731.3 ± 1.2
100000 kPa | 798.5 ± 1.1 | 795.6 ± 1.1 | 786 ± 1.1 | 773.6 ± 1.2 | 761.6 ± 1.2 | 750 ± 1.2 | 738.3 ± 1.3
110000 kPa | 803.6 ± 1.1 | 800.8 ± 1.1 | 791.4 ± 1.2 | 779.3 ± 1.2 | 767.7 ± 1.3 | 756.3 ± 1.3 | 745.2 ± 1.3
120000 kPa | 808.4 ± 1.2 | 805.6 ± 1.2 | 796.4 ± 1.2 | 784.6 ± 1.3 | 773.4 ± 1.3 | 762.3 ± 1.3 | 751.3 ± 1.4
130000 kPa | 812.9 ± 1.2 | 810.3 ± 1.2 | 801.3 ± 1.3 | 789.8 ± 1.3 | 778.8 ± 1.3 | 768 ± 1.4 | 757.4 ± 1.4
140000 kPa | 817.3 ± 1.2 | 814.6 ± 1.3 | 806 ± 1.3 | 794.7 ± 1.3 | 784 ± 1.4 | 773.3 ± 1.4 | 763 ± 1.5
